Where two headings read alike, the source gives them in different places.
Columns and labels:
HCoV-OC43 = assay: Virus inhibition assay (focus reduction), HCoV-OC43 on MRC-5 cells; assay type: cell-based, human coronavirus; conditions: for EC50: Betacoronavirus 1, OC43, MRC5, read-out: EC50 (µM) (95% CI); for activity at 0.3 µM / activity at 3 µM / activity at 33 µM: Betacoronavirus 1, OC43, MRC5, 20 h, read-out: Residual Virus Infectivity (%) HCoV-OC43
[1] = Cell viability MTS assay on MRC-5 cells; assay type: cell-based; conditions: human, same conditions as HCoV inhibition assay, read-out: CC50 (µM) (95% CI)
MRC-5 cells = assay: Cytotoxic effect microscopically visible in the HCoV-OC43 screening; assay type: cell-based, human; design: key: -: Cytotoxic effect microscopically visible; conditions: 33 µM
Hep-2 cells = assay: Cytotoxic effect microscopically visible in the RSV-A2 screening; assay type: cell-based, human; design: key: -: Cytotoxic effect microscopically visible
RSV-A2 = assay: Virus inhibition assay (plaque reduction), RSV-A2 on Hep-2 cells; assay type: cell-based; conditions: human respiratory syncytial virus; for activity at 0.3 µM / activity at 3 µM / activity at 33 µM: HEp-2, 72 h, read-out: Residual Virus Infectivity (%) RSV-A2
MDCK cells = assay: Cytotoxic effect microscopically visible in the IFV-A H1N1 screening; assay type: cell-based, canine; design: key: -: Cytotoxic effect microscopically visible; conditions: 33 µM
in vitro [2] = conditions: human
[3] = Cell viability MTS assay on MDCK cells; conditions: dog
IFV-A H1N1 = assay: Virus inhibition assay (focus reduction), IFV-A H1N1 on MDCK cells; assay type: cell-based; conditions: Influenza A virus, read-out: EC50 (µM) (95% CI)
[4] = Cell viability MTS assay on Hep-2 cells; conditions: human
in vitro [5] = conditions: dog
[6] = RSV-A2, Hep-2 cells, read-out: EC50 (µM) (95% CI)

For `O=C(N[C@@H](Cc1ccc(O)cc1)C(=O)O)c1ccc(=O)n2c1sc1ccc(OC3CCCCC3)cc12` [Compound 27], the EC50 (HCoV-OC43) was 10 µM and the CC50 [1] was 189 µM.
With `O=C(O)CC(NC(=O)c1cc(-c2ccccc2)c(=O)n2c1sc1ccc(OC3CCCCC3)cc12)c1ccccc1` (centres unmarked) [Compound 6] the “Cytotoxic effect microscopically visible” value (MRC-5 cells) was “-”, the “Cytotoxic effect microscopically visible” value (Hep-2 cells; 3 µM) was “-” and the “Cytotoxic effect microscopically visible” value (Hep-2 cells; 33 µM) was “-”.
In the case of `O=C(O)C1CCN(C(=O)c2cc(-c3ccccc3)c(=O)n3c2sc2ccc(OC4CCCCC4)cc23)C1` (centres unmarked) [Compound 20], the activity at 0.3 µM (RSV-A2) is reported as 100%, the activity at 3 µM (RSV-A2) is reported as 100% and the activity at 33 µM (RSV-A2) is reported as 100%.
With `CCN(CC)CCCC(C)Nc1ccnc2cc(Cl)ccc12` (centres unmarked) [chloroquine, reference compound] the EC50 (HCoV-OC43) was 0.19 µM.
In the case of `O=C(N[C@@H](Cc1ccc(O)cc1)C(=O)O)c1cc(-c2ccccc2)c(=O)n2c1sc1cc(OC3CCCCC3)ccc12` [Compound 5], the “Cytotoxic effect microscopically visible” value (MRC-5 cells) is reported as “-” and the “Cytotoxic effect microscopically visible” value (Hep-2 cells; 33 µM) is reported as “-”.
With `O=C(NCC1(C(=O)O)CC1)c1cc(-c2ccccc2)c(=O)n2c1sc1ccc(OC3CCCCC3)cc12` [Compound 4] the “Cytotoxic effect microscopically visible” value (MRC-5 cells) was “-” and the “Cytotoxic effect microscopically visible” value (Hep-2 cells; 33 µM) was “-”.
With `O=C(N[C@@H](Cc1ccc(O)cc1)C(=O)O)c1cc(-c2ccccc2)c(=O)n2c1sc1ccc(OC3CCCC3)cc12` [Compound 17] the “Cytotoxic effect microscopically visible” value (Hep-2 cells; 33 µM) was “-”.
In the case of `NC(=O)CCNC(=O)c1cc(-c2ccccc2)c(=O)n2c1sc1ccc(OC3CCCCC3)cc12` [Compound 12], the “Cytotoxic effect microscopically visible” value (Hep-2 cells; 33 µM) is reported as “-”.
With `O=C(N[C@@H](Cc1ccccc1)C(=O)O)c1cc(-c2ccccc2)c(=O)n2c1sc1ccc(OC3CCCCC3)cc12` [Compound 26] the “Cytotoxic effect microscopically visible” value (MRC-5 cells) was “-” and the “Cytotoxic effect microscopically visible” value (Hep-2 cells; 33 µM) was “-”.
In the case of `NS(=O)(=O)c1ccc(OC(=O)c2ccc(=O)n3c2sc2ccc(OC4CCCCC4)cc23)cc1` [Compound 24], the “Cytotoxic effect microscopically visible” value (MDCK cells) is reported as “-”, the “Cytotoxic effect microscopically visible” value (MRC-5 cells) is reported as “-” and the “Cytotoxic effect microscopically visible” value (Hep-2 cells; 33 µM) is reported as “-”.
For `O=C(N[C@@H](Cc1ccc(O)cc1)C(=O)O)c1cc(-c2ccc(F)cc2)c(=O)n2c1sc1ccc(OC3CCCCC3)cc12` [Compound 14], the EC50 (HCoV-OC43) was 1.09 µM, the “Cytotoxic effect microscopically visible” value (Hep-2 cells; 33 µM) was “-” and the CC50 [1] was 62.2 µM.
With `NS(=O)(=O)c1ccc(OC(=O)c2cc(-c3ccccc3)c(=O)n3c2sc2ccc(OC4CCCCC4)cc23)cc1` [Compound 23] the EC50 (HCoV-OC43) was 0.23 µM, the “Cytotoxic effect microscopically visible” value (Hep-2 cells; 33 µM) was “-” and the CC50 [1] was 18.2 µM.
In the case of `NS(=O)(=O)c1ccc(OC(=O)c2cc(NCCN3CCOCC3)c(=O)n3c2sc2ccc(OC4CCCCC4)cc23)cc1` [Compound 29], the “Cytotoxic effect microscopically visible” value (MDCK cells) is reported as “-”, the “Cytotoxic effect microscopically visible” value (MRC-5 cells) is reported as “-” and the “Cytotoxic effect microscopically visible” value (Hep-2 cells; 33 µM) is reported as “-”.
In the case of `NC(=O)c1ncn([C@@H]2O[C@H](CO)[C@@H](O)[C@H]2O)n1` [ribavirin, reference compound], the EC50 (RSV-A2; [6]) is reported as 37 µM and the CC50 (in vitro [2]) is reported as > 2400 µM.
With `O=C(O)CCNC(=O)c1cc(-c2ccccc2)c(=O)n2c1sc1ccc(OC3CCCCC3)cc12` [Compound 10] the EC50 (HCoV-OC43) was 7.97 µM, the “Cytotoxic effect microscopically visible” value (Hep-2 cells; 33 µM) was “-” and the CC50 [1] was > 200 µM.
In the case of `O=C(N[C@@H](Cc1ccc(O)cc1)C(=O)O)c1cc(-c2ccc(Cl)cc2)c(=O)n2c1sc1ccc(OC3CCCCC3)cc12` [Compound 9], the EC50 (HCoV-OC43) is reported as 1.2 µM, the “Cytotoxic effect microscopically visible” value (Hep-2 cells; 33 µM) is reported as “-” and the CC50 [1] is reported as 55.6 µM.
In the case of `CCN(CC)CCOc1ccc(-c2cc(C(=O)Oc3ccc(S(N)(=O)=O)cc3)c3sc4ccc(OC5CCCCC5)cc4n3c2=O)cc1` [Compound 22], the “Cytotoxic effect microscopically visible” value (MDCK cells) is reported as “-” and the “Cytotoxic effect microscopically visible” value (Hep-2 cells; 33 µM) is reported as “-”.
For `CC(CC(=O)O)NC(=O)c1cc(-c2ccccc2)c(=O)n2c1sc1ccc(OC3CCCCC3)cc12` (centres unmarked) [Compound 21], the “Cytotoxic effect microscopically visible” value (MDCK cells) was “-”, the “Cytotoxic effect microscopically visible” value (MRC-5 cells) was “-” and the “Cytotoxic effect microscopically visible” value (Hep-2 cells; 33 µM) was “-”.
With `O=C(c1cc(-c2ccccc2)c(=O)n2c1sc1ccc(OC3CCCCC3)cc12)N1CCC[C@@H](O)C1` [Compound 11] the “Cytotoxic effect microscopically visible” value (MDCK cells) was “-”, the “Cytotoxic effect microscopically visible” value (MRC-5 cells) was “-” and the “Cytotoxic effect microscopically visible” value (Hep-2 cells; 3 µM) was “-”. For the same compound, the “Cytotoxic effect microscopically visible” value (Hep-2 cells; 33 µM) was “-”.
Work on `O=C(N[C@@H](CO)C(=O)O)c1cc(-c2ccccc2)c(=O)n2c1sc1ccc(OC3CCCCC3)cc12` [Compound 8] yielded an activity at 0.3 µM (RSV-A2) of 100%, an activity at 3 µM (RSV-A2) of 100% and an activity at 33 µM (RSV-A2) of 98%.
For `C[C@H](CO)NC(=O)c1cc(-c2ccccc2)c(=O)n2c1sc1ccc(OC3CCCCC3)cc12` [Compound 7], the “Cytotoxic effect microscopically visible” value (MDCK cells) was “-”, the “Cytotoxic effect microscopically visible” value (MRC-5 cells) was “-” and the “Cytotoxic effect microscopically visible” value (Hep-2 cells; 3 µM) was “-”. The “Cytotoxic effect microscopically visible” value (Hep-2 cells; 33 µM) was “-”.
With `CCN(CC)CCOc1ccc2sc3c(C(=O)Oc4ccc(S(N)(=O)=O)cc4)cc(-c4ccccc4)c(=O)n3c2c1` [Compound 28] the “Cytotoxic effect microscopically visible” value (MDCK cells) was “-”, the “Cytotoxic effect microscopically visible” value (MRC-5 cells) was “-” and the “Cytotoxic effect microscopically visible” value (Hep-2 cells; 33 µM) was “-”.
With `O=C(N[C@@H](Cc1ccc(O)cc1)C(=O)O)c1cc(-c2cccs2)c(=O)n2c1sc1ccc(OC3CCCCC3)cc12` [Compound 25] the EC50 (HCoV-OC43) was 0.29 µM, the “Cytotoxic effect microscopically visible” value (Hep-2 cells; 33 µM) was “-” and the CC50 [1] was 16.5 µM. For the same compound, the CC50 [3] was 86.1 µM and the EC50 (IFV-A H1N1) was 13.7 µM.
For `O=C(N[C@@H](Cc1ccc(O)cc1)C(=O)O)c1cc(-c2cccc(F)c2)c(=O)n2c1sc1ccc(OC3CCCCC3)cc12` [Compound 16], the EC50 (RSV-A2; [6]) was 18.6 µM, the EC50 (HCoV-OC43) was 4.22 µM and the CC50 [1] was 84.7 µM. The CC50 [4] was 72.9 µM.
With `COc1ccc(-c2cc(C(=O)N[C@@H](Cc3ccc(O)cc3)C(=O)O)c3sc4ccc(OC5CCCCC5)cc4n3c2=O)cc1F` [Compound 2] the activity at 0.3 µM (RSV-A2) was 100%, the activity at 3 µM (RSV-A2) was 44% and the activity at 0.3 µM (HCoV-OC43) was 95%. The activity at 3 µM (HCoV-OC43) was 54%, the activity at 33 µM (HCoV-OC43) was 1% and the EC50 (HCoV-OC43) was 4.67 µM. The “Cytotoxic effect microscopically visible” value (Hep-2 cells; 33 µM) was “-” and the CC50 [1] was 82.9 µM.
For `O=C(NCc1ccccc1)c1cc(-c2ccccc2)c(=O)n2c1sc1ccc(OC3CCCCC3)cc12` [Compound 3], the activity at 0.3 µM (RSV-A2) was 100%, the activity at 3 µM (RSV-A2) was 93% and the activity at 33 µM (RSV-A2) was 67%.
In the case of `CC(C)C(CC(=O)O)NC(=O)c1cc(-c2ccccc2)c(=O)n2c1sc1ccc(OC3CCCCC3)cc12` (centres unmarked) [Compound 19], the “Cytotoxic effect microscopically visible” value (MDCK cells) is reported as “-”, the “Cytotoxic effect microscopically visible” value (MRC-5 cells) is reported as “-” and the “Cytotoxic effect microscopically visible” value (Hep-2 cells; 33 µM) is reported as “-”.
With `CCOC(=O)C1=C[C@@H](OC(CC)CC)[C@H](NC(C)=O)[C@@H](N)C1` [oseltamivir, reference compound] the CC50 (in vitro [5]) was > 200 µM and the EC50 (IFV-A H1N1) was 0.17 µM.
Compound `O=C(NCc1ccc(O)cc1)c1cc(-c2ccccc2)c(=O)n2c1sc1ccc(OC3CCCCC3)cc12` [Compound 13] has an activity at 0.3 µM (RSV-A2) of 100%, an activity at 3 µM (RSV-A2) of 15% and an activity at 33 µM (RSV-A2) of 0%. The EC50 (RSV-A2; HEp-2, read-out: EC50 (µM) (95% CI)) was 2.87 µM, the activity at 0.3 µM (HCoV-OC43) was 100% and the activity at 3 µM (HCoV-OC43) was 100%. The activity at 33 µM (HCoV-OC43) was 64% and the CC50 [4] was > 200 µM.
In the case of `O=C(N[C@@H](Cc1ccc(O)cc1)C(=O)O)c1cc(-c2ccccc2F)c(=O)n2c1sc1ccc(OC3CCCCC3)cc12` [Compound 15], the activity at 0.3 µM (RSV-A2) is reported as 86%, the activity at 3 µM (RSV-A2) is reported as 85% and the activity at 33 µM (RSV-A2) is reported as 40%.

Source: article PMC12299477 (Viruses, 2025)
